# Measured values published in US12043632B2, “6-heteroaryloxy benzimidazoles and azabenzimidazoles as JAK2 inhibitors” (Ajax Therapeutics, Inc., priority 2020, dated 2024).
# Target: T1, JAK2 (JH1domain-catalytic, Y1007F,Y1008F) kinase (Homo sapiens, UniProt O60674, Y1007F/Y1008F)
# T1 construct: JAK2 (JH1domain-catalytic, Y1007F,Y1008F) kinase was expressed as N-terminal fusion; made in house; host or cells: transiently transfected HEK293 cells
# Assay: JAK2 JH1 Domain Binding Assay
# Settings: qPCR readout
# T1 sequence (O60674 849-1124 Y1007F/Y1008F limits assumed): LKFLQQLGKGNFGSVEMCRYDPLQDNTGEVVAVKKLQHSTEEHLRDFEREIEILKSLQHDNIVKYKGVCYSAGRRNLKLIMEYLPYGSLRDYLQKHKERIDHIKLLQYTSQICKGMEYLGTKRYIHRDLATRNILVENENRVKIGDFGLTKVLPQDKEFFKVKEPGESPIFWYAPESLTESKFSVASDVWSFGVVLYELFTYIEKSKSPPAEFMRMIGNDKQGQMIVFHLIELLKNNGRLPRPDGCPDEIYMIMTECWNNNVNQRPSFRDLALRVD
row,Kd [nM],SMILES
1,10 to 50,"CNc1cn2ncc(Oc3cnc4nc(Nc5cc(CN6CCCC6)cc(C(F)(F)F)c5)n(C)c4c3Cl)c2cn1 [Example I-316, 7-chloro-1-methyl-6-((6-(methylamino)pyrazolo[1,5-a]pyrazin-3-yl)oxy)-N-(3-(pyrrolidin-1-ylmethyl)-5-(trifluoromethyl)phenyl)-1H-imidazo[4,5-b]pyridin-2-amine]"
2,10 to 50,"CNc1cn2ncc(Oc3cnc4nc(Nc5cc(C6CC6)nn(C)c5=O)n(C)c4c3Cl)c2cn1 [Example I-317, 4-((7-chloro-1-methyl-6-((6-(methylamino)pyrazolo[1,5-a]pyrazin-3-yl)oxy)-1H-imidazo[4,5-b]pyridin-2-yl)amino)-6-cyclopropyl-2-methylpyridazin-3(2H)-one]"
3,10 to 50,"CNc1cn2ncc(Oc3cnc4nc(Nc5cc(C(F)(F)F)cn(C)c5=O)n(C)c4c3OC)c2cn1 [Example I-318, 3-((7-methoxy-1-methyl-6-((6-(methylamino)pyrazolo[1,5-a]pyrazin-3-yl)oxy)-1H-imidazo[4,5-b]pyridin-2-yl)amino)-1-methyl-5-(trifluoromethyl)pyridin-2(1H)-one]"
4,< 10,"COCc1n[nH]c2ncc(Oc3cnc4nc(Nc5cc(C(F)(F)F)cn(C)c5=O)n(C)c4c3C#N)cc12 [Example I-319, 6-((3-(methoxymethyl)-1H-pyrazolo[3,4-b]pyridin-5-yl)oxy)-1-methyl-2-((1-methyl-2-oxo-5-(trifluoromethyl)-1,2-dihydropyridin-3-yl)amino)-1H-imidazo[4,5-b]pyridine-7-carbonitrile]"
5,10 to 50,"CNc1ccc2c(Oc3cnc4nc(Nc5cc(C(F)(F)F)cn(C)c5=O)n(C)c4c3)cnn2c1 [Example I-320, 1-methyl-3-((1-methyl-6-((6-(methylamino)pyrazolo[1,5-a]pyridin-3-yl)oxy)-1H-imidazo[4,5-b]pyridin-2-yl)amino)-5-(trifluoromethyl)pyridin-2(1H)-one]"
6,< 10,"CNc1cn2ncc(Oc3cnc4nc(Nc5cc(C(F)(F)F)cn(C6CC6)c5=O)n(C)c4c3Cl)c2cn1 [Example I-321, 3-((7-chloro-1-methyl-6-((6-(methylamino)pyrazolo[1,5-a]pyrazin-3-yl)oxy)-1H-imidazo[4,5-b]pyridin-2-yl)amino)-1-cyclopropyl-5-(trifluoromethyl)pyridin-2(1H)-one]"
7,10 to 50,"Cn1c(Nc2cc(C(F)(F)F)n(C3CC4(COC4)C3)n2)nc2ncc(Oc3cnc4[nH]ccc4c3)c(C#N)c21 [Example I-322, 6-((1H-pyrrolo[2,3-b]pyridin-5-yl)oxy)-2-((1-(2-oxaspiro[3.3]heptan-6-yl)-5-(trifluoromethyl)-1H-pyrazol-3-yl)amino)-1-methyl-1H-imidazo[4,5-b]pyridine-7-carbonitrile]"
8,10 to 50,"Cn1cc(C(F)(F)F)cc(Nc2nc3ncc(Oc4cnn5ccn(C)c(=O)c45)c(Cl)c3n2C)c1=O [Example I-323, 3-((7-chloro-1-methyl-2-((1-methyl-2-oxo-5-(trifluoromethyl)-1,2-dihydropyridin-3-yl)amino)-1H-imidazo[4,5-b]pyridin-6-yl)oxy)-5-methylpyrazolo[1,5-a]pyrazin-4(5H)-one]"
9,50 to 1000,"CNc1cn2ncc(Oc3cnc4nc(Nc5cc(C(F)(F)F)cn(-c6cccnc6)c5=O)n(C)c4c3Cl)c2cn1 [Example I-324, 3-((7-chloro-1-methyl-6-((6-(methylamino)pyrazolo[1,5-a]pyrazin-3-yl)oxy)-1H-imidazo[4,5-b]pyridin-2-yl)amino)-5-(trifluoromethyl)-2H-[1,3′-bipyridin]-2-one]"
10,10 to 50,"[2H]C([2H])([2H])n1cc(C(F)(F)F)cc(Nc2nc3ncc(Oc4cnn5cc(NC)ncc45)c(Cl)c3n2C)c1=O [Example I-325, 3-((7-chloro-1-methyl-6-((6-(methylamino)pyrazolo[1,5-a]pyrazin-3-yl)oxy)-1H-imidazo[4,5-b]pyridin-2-yl)amino)-1-(methyl-d3)-5-(trifluoromethyl)pyridin-2(1H)-one]"
11,50 to 1000,"CNc1cn2ncc(Oc3cnc4nc(Nc5ccc(CN6CCC(F)(F)C6)c(C(F)(F)F)c5)n(C)c4c3Cl)c2cn1 [Example I-326, 7-chloro-N-(4-((3,3-difluoropyrrolidin-1-yl)methyl)-3-(trifluoromethyl)phenyl)-1-methyl-6-((6-(methylamino)pyrazolo[1,5-a]pyrazin-3-yl)oxy)-1H-imidazo[4,5-b]pyridin-2-amine]"
12,10 to 50,"CNc1cn2ncc(Oc3cnc4nc(Nc5cc(CN(C)C)cc(C(F)(F)F)c5)n(C)c4c3Cl)c2cn1 [Example I-327, 7-chloro-N-(3-((dimethylamino)methyl)-5-(trifluoromethyl)phenyl)-1-methyl-6-((6-(methylamino)pyrazolo[1,5-a]pyrazin-3-yl)oxy)-1H-imidazo[4,5-b]pyridin-2-amine]"
13,10 to 50,"CNc1cn2ncc(Oc3cnc4nc(Nc5cc(C(F)(F)F)cn(-c6cnn(C)c6)c5=O)n(C)c4c3Cl)c2cn1 [Example I-328, 3-((7-chloro-1-methyl-6-((6-(methylamino)pyrazolo[1,5-a]pyrazin-3-yl)oxy)-1H-imidazo[4,5-b]pyridin-2-yl)amino)-1-(1-methyl-1H-pyrazol-4-yl)-5-(trifluoromethyl)pyridin-2(1H)-one]"
14,< 10,"Cc1c[nH]c2ncc(Oc3cnc4nc(Nc5cc(C(F)(F)F)cn(C)c5=O)n(C)c4c3C#N)cc12 [Example I-329, 1-methyl-6-((3-methyl-1H-pyrrolo[2,3-b]pyridin-5-yl)oxy)-2-((1-methyl-2-oxo-5-(trifluoromethyl)-1,2-dihydropyridin-3-yl)amino)-1H-imidazo[4,5-b]pyridine-7-carbonitrile]"
15,< 10,"Cn1c(Nc2cc(C(F)(F)F)n(C3CC4(COC4)C3)n2)nc2ncc(Oc3cnc4[nH]ncc4c3)c(C#N)c21 [Example I-330, 6-((1H-pyrazolo[3,4-b]pyridin-5-yl)oxy)-2-((1-(2-oxaspiro[3.3]heptan-6-yl)-5-(trifluoromethyl)-1H-pyrazol-3-yl)amino)-1-methyl-1H-imidazo[4,5-b]pyridine-7-carbonitrile]"
16,< 10,"CNc1cn2ncc(Oc3cnc4nc(Nc5cc(OC[C@@H]6CCCN6C)cc(C(F)(F)F)c5)n(C)c4c3Cl)c2cn1 [Example I-331, (S)-7-chloro-1-methyl-6-((6-(methylamino)pyrazolo[1,5-a]pyrazin-3-yl)oxy)-N-(3-((1-methylpyrrolidin-2-yl)methoxy)-5-(trifluoromethyl)phenyl)-1H-imidazo[4,5-b]pyridin-2-amine]"
17,< 10,"CNc1cn2ncc(Oc3cnc4nc(Nc5cc(OC[C@H]6CCCN6C)cc(C(F)(F)F)c5)n(C)c4c3Cl)c2cn1 [Example I-332, (R)-7-chloro-1-methyl-6-((6-(methylamino)pyrazolo[1,5-a]pyrazin-3-yl)oxy)-N-(3-((1-methylpyrrolidin-2-yl)methoxy)-5-(trifluoromethyl)phenyl)-1H-imidazo[4,5-b]pyridin-2-amine]"
18,10 to 50,"Cn1cc(C(F)(F)F)cc(Nc2nc3ncc(Oc4cnc5[nH]nc(C(F)(F)F)c5c4)c(C#N)c3n2C)c1=O [Example I-333, 1-methyl-2-((1-methyl-2-oxo-5-(trifluoromethyl)-1,2-dihydropyridin-3-yl)amino)-6-((3-(trifluoromethyl)-1H-pyrazolo[3,4-b]pyridin-5-yl)oxy)-1H-imidazo[4,5-b]pyridine-7-carbonitrile]"
19,10 to 50,"Cc1c(Oc2cnc3nc(Nc4cc(C(F)(F)F)cn(C)c4=O)n(C)c3c2C#N)cnc2[nH]ccc12 [Example I-334, 1-methyl-6-((4-methyl-1H-pyrrolo[2,3-b]pyridin-5-yl)oxy)-2-((1-methyl-2-oxo-5-(trifluoromethyl)-1,2-dihydropyridin-3-yl)amino)-1H-imidazo[4,5-b]pyridine-7-carbonitrile]"
20,< 10,"Cn1cc(C(F)(F)F)cc(Nc2nc3ncc(Oc4cnc5[nH]ccc5c4F)c(C#N)c3n2C)c1=O [Example I-335, 6-((4-fluoro-1H-pyrrolo[2,3-b]pyridin-5-yl)oxy)-1-methyl-2-((1-methyl-2-oxo-5-(trifluoromethyl)-1,2-dihydropyridin-3-yl)amino)-1H-imidazo[4,5-b]pyridine-7-carbonitrile]"
21,< 10,"Cn1cc(C(F)(F)F)cc(Nc2nc3ncc(Oc4cnn5cc(OCCN6CCOCC6)ccc45)c(C#N)c3n2C)c1=O [Example I-336, 1 1-methyl-2-((1-methyl-2-oxo-5-(trifluoromethyl)-1,2-dihydropyridin-3-yl)amino)-6-((6-(2-morpholinoethoxy)pyrazolo[1,5-a]pyridin-3-yl)oxy)-1H-imidazo[4,5-b]pyridine-7-carbonitrile]"
22,< 10,"Cn1cc(C(F)(F)F)cc(Nc2nc3ncc(Oc4cnc5[nH]nc(C6CC6)c5c4)c(C#N)c3n2C)c1=O [Example I-337, 6-((3-cyclopropyl-1H-pyrazolo[3,4-b]pyridin-5-yl)oxy)-1-methyl-2-((1-methyl-2-oxo-5-(trifluoromethyl)-1,2-dihydropyridin-3-yl)amino)-1H-imidazo[4,5-b]pyridine-7-carbonitrile]"
23,< 10,"CNc1cn2ncc(Oc3cnc4nc(Nc5cc6n(n5)CCCC6(C)C)n(C)c4c3Cl)c2cn1 [Example I-338, 7-chloro-N-(4,4-dimethyl-4,5,6,7-tetrahydropyrazolo[1,5-a]pyridin-2-yl)-1-methyl-6-((6-(methylamino)pyrazolo[1,5-a]pyrazin-3-yl)oxy)-1H-imidazo[4,5-b]pyridin-2-amine]"
24,< 10,"CNc1cn2ncc(Oc3cnc4nc(Nc5cc(-n6cnc(C)c6)cc(C(F)(F)F)c5)n(C)c4c3Cl)c2cn1 [Example I-339, 7-chloro-1-methyl-N-(3-(4-methyl-1H-imidazol-1-yl)-5-(trifluoromethyl)phenyl)-6-((6-(methylamino)pyrazolo[1,5-a]pyrazin-3-yl)oxy)-1H-imidazo[4,5-b]pyridin-2-amine]"
25,< 10,"CNc1cn2ncc(Oc3cnc4nc(Nc5cc(C(F)(F)F)n([C@@H]6CCOC6)n5)n(C)c4c3Cl)c2cn1 [Example I-340, (R)-7-chloro-1-methyl-6-((6-(methylamino)pyrazolo[1,5-a]pyrazin-3-yl)oxy)-N-(1-(tetrahydrofuran-3-yl)-5-(trifluoromethyl)-1H-pyrazol-3-yl)-1H-imidazo[4,5-b]pyridin-2-amine]"
